Target: T1, Interleukin-1 receptor-associated kinase 4 (Homo sapiens, UniProt Q9NWZ3)
T1 sequence (Q9NWZ3 whole entry): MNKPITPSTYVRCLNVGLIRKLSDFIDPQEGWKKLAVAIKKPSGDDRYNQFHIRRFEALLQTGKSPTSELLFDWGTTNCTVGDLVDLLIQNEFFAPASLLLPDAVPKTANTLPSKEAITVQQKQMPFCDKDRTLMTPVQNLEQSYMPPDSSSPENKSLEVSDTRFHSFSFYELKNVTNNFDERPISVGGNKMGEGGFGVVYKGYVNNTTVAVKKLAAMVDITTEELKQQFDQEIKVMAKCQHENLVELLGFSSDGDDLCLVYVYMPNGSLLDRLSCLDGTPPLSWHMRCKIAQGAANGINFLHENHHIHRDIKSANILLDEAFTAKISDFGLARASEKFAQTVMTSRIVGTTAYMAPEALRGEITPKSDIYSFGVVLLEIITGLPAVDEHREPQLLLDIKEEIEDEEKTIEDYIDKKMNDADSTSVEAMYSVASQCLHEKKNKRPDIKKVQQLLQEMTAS
Assay: IRAK4 Inhibition Assay
Method: The assays were performed in U-bottom 384-well plates. The final assay volume was 30 μL prepared from 15 μL additions of enzyme and substrates (fluoresceinated peptide and ATP) and test compounds in assay buffer (20 mM HEPES pH 7.2, 10 mM MgCl2, 0.015% Brij 35 and 4 mM DTT). The reaction was initiated by the combination of IRAK4 with substrates and test compounds. The reaction mixture was incubated at room temperature for 60 min. and terminated by adding 45 μL of 35 mM EDTA to each sample. The reaction mixture was analyzed on the Caliper LABCHIP 3000 (Caliper, Hopkinton, MA) by electrophoretic separation of the fluorescent substrate and phosphorylated product. Inhibition data were calculated by comparison to no enzyme control reactions for 100% inhibition and vehicle-only reactions for 0% inhibition. The final concentrations of reagents in the assays are ATP, 500 μM; FL-IPTSPITTTYFFFKKK peptide 1.5 μM; IRAK4, 0.6 nM; and DMSO, 1.6%.

In the case of `CC(C)Nc1c(C(=O)NC[C@@H](F)C(C)(C)O)cnc2c1Oc1cc(C#N)ccc1O2` [US12391702, Example 1], the IC50 is reported as 1180 nM.

From BindingDB's records for patent US12391702 (Bristol-Myers Squibb, 2025)
